This note sets out measurements from patent US8946218B2, “CCR2 receptor antagonists, method for producing the same, and use thereof as medicaments” (Boehringer Ingelheim International GmbH, priority 2010, dated 2015).

This experiment concerns the target T1, CCR2 (Homo sapiens, UniProt P41597).
T1 construct: Membranes were prepared from THP-1 cells; endogenous in cells; host or cells: THP-1 (human acute monocytic leukaemia cells), membrane preparation
Description: Receptor membrane binding assay: [125I]MCP-1 binding to CCR2 on THP-1 cell membranes (SPA beads). The note with it: THP-1 membranes, [125I]MCP-1, bound radioactivity after 8 h; read-out: hKi. The protocol:
The above exemplary substances have been tested for binding to CCR2 using a binding assay as outlined herein below:
THP-1 cells (human acute monocytic leukaemia cells) were cultured under standardized conditions at 37° C. and 5% CO2 in a humidified incubator. THP-1 cells were cultivated in RPMI 1640 medium (Gibco 21875) containing 1% MEM-NEAA (Gibso 11140) 2 mM L-glutamine, 1.5 g/L sodium bicarbonate, 4.5 g/L glucose, 10 mM HEPES and 1.0 mM sodium pyruvate, 90%; 10% fetal calf serum (FCS Gibco 10500-064).
Membranes were prepared from THP-1 cells. THP-1 cells were centrifuged at 300×g at 4° C. for 10 min. The cell pellet was resuspended in Phosphate Buffer Saline (PBS, including 10 μM Pefabloc and a protease inhibitor mix ‘complete’, Boehringer Mannheim (1 tablet/50 ml)), to a concentration of […]. The membrane preparation was performed by disrupting the cells by nitrogen […] (at 50 bar, for 1 h) in a “Nitrogen Bombe” (Parr Instrument). Cell debris was removed by centrifugation (800×g at 4° C., 1 min). The supernatant was centrifuged at 80000×g, 4° C. for 30 min to sediment the cell membranes. Usually 50 mg of protein (Bradford assay) were yielded from 1×10E9 cells. The membranes were resuspended in 25 mM HEPES, 25 mM MgCl2, 1 mM CaCl2, 10% Glycerine for storage in aliquots at −80° C. in 25 mM HEPES, 25 mM MgCl2, 1 mM CaCl2, 10% Glycerine and stored at −80° C.
Receptor Membrane Binding Assay:
Perkin Elmer NEX 332 Jod 125 MCP-1, Stock: 2200 Ci/mmol solved in 2000 μl assay buffer, stored at −20° C. THP-1 membrane were adjusted with 25 mM HEPES, pH 7.2; 5 mM MgCl2; 0.5 mM CaCl2; 0.2% BSA assay buffer to a concentration of 2.5 μg/15 μl. Amersham Biosciences PVT-WGA Beads (RPNQ0001) were adjusted with assay buffer to a concentration of 0.24 mg/30 μl. For preparation of the membrane-bead-suspension membranes and beads were incubated for 30 min at RT under rotation (60 rpm) with a ratio of 1:2. Test compounds dissolved in 100% DMSO to a concentration of 10 mM and are further diluted with 100% DMSO to 1 mM. All additional compound dilutions were obtained with assay buffer, final 1% DMSO. Compounds, membrane-bead-suspension and [125I]MCP-1 (ca. 25000 cpm/10 μl) were incubated. Bound radioactivity was determined by scintillation counter after 8 h. Determination of affinity of test compounds (dissociation constant hKi) is calculated by iterative fitting of experimental data using the “easy sys” program, which is based on law of mass action (Schittkowski K. (1994), Numerische Mathematik, Vol. 68, 129-142).

T1 sequence (P41597 whole entry): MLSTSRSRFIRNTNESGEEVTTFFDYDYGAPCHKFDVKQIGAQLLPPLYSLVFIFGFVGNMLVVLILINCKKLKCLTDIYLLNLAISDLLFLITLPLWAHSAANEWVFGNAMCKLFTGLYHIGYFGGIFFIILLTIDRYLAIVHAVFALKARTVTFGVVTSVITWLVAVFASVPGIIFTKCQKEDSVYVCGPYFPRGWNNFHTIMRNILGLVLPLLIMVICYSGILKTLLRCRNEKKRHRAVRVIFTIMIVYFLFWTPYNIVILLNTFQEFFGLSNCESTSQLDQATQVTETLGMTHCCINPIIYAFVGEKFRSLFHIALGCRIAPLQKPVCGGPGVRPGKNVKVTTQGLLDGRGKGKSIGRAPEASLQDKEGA

`COC1COCCC1NC1CCN(C(=O)c2ncnc(Nc3ccc4ccccc4c3)c2C)CC1` (stereo not shown) [Example 23]: the Ki was determined as 17 nM.

`CO[C@@H]1COCC[C@@H]1NC1CCN(C(=O)c2nc(C(F)(F)F)nc(Nc3ccc(Cl)c(Cl)c3)c2C)CC1` [Example 33c]: the Ki stood at 0.2 nM.

Consider `Cc1c(Nc2cccc(C(F)(F)F)c2)nc(C2CC2)nc1C(=O)N1CCC(N[C@@H]2CCOC[C@@H]2F)CC1` [Example 33s], for which the Ki was 1 nM.

For `COC1COCCC1NC1CCN(C(=O)c2ncnc(Nc3cc(C(F)(F)F)cc(C(F)(F)F)c3)c2C)CC1` (stereo not shown) [Example 2], the Ki was 121 nM.

With `CO[C@@H]1COCC[C@@H]1NC1CCN(C(=O)c2nc(C3CC3)nc(Nc3ccc(Cl)c(Cl)c3)c2C)CC1` [Example 33o], the Ki worked out at 0.2 nM.

Turning to `COc1ccc2cc(Nc3ncnc(C(=O)N4CCC(N[C@H]5CCOC[C@H]5OC)CC4)c3C)ccc2c1` [Example 36], the Ki came to 70 nM.

Take `COC1COCCC1NC1CCN(C(=O)c2ncnc(Nc3ccccc3)c2C)CC1` (stereo not shown) [Example 3]: the Ki turned out to be 450 nM.

On to `CO[C@H]1COCC[C@H]1NC1CCN(C(=O)c2ncnc(Nc3ccc(Cl)c(Cl)c3)c2C)CC1` [Example 17b], for which the Ki was 5 nM.

For `CO[C@@H]1COCC[C@@H]1NC1CCN(C(=O)c2ncnc(Nc3ccc4cc(Br)ccc4c3)c2C)CC1` [Example 43], the Ki came out at 17 nM.

Regarding `COC1COCCC1NC1CCN(C(=O)c2ncnc(Nc3cc(Cl)ccc3C)c2C)CC1` (stereo not shown) [Example 12], the Ki was found to be 728 nM.

For the compound `CO[C@H]1COCC[C@H]1NC1CCN(C(=O)c2nc(C(F)(F)F)nc(Nc3ccc(Cl)c(Cl)c3)c2C)CC1` [Example 33d], the Ki stood at 0.3 nM.

With `COC1COCCC1NC1CCN(C(=O)c2ncnc(Nc3cccc(OC(F)(F)F)c3)c2C)CC1` (stereo not shown) [Example 11], the Ki amounted to 15 nM.

For the compound `COC1COCCC1NC1CCN(C(=O)c2ncnc(N(C)c3cccc(C(F)(F)F)c3)c2C)CC1` (stereo not shown) [Example 10], the Ki was found to be 481 nM.
